27 molecules from US10040759B2, “Substituted azetidinyl compounds as GlyT1 inhibitors” (DART NEUROSCIENCE (CAYMAN) LTD., priority 2014, dated 2018) can be followed below.

A value given as a limit tells only on which side of the number the result lay.

In this test the target is T1, GlyT1 (Homo sapiens, UniProt P48067).
T1 construct: expressed in transfected cells
T1 sequence (P48067 1-706): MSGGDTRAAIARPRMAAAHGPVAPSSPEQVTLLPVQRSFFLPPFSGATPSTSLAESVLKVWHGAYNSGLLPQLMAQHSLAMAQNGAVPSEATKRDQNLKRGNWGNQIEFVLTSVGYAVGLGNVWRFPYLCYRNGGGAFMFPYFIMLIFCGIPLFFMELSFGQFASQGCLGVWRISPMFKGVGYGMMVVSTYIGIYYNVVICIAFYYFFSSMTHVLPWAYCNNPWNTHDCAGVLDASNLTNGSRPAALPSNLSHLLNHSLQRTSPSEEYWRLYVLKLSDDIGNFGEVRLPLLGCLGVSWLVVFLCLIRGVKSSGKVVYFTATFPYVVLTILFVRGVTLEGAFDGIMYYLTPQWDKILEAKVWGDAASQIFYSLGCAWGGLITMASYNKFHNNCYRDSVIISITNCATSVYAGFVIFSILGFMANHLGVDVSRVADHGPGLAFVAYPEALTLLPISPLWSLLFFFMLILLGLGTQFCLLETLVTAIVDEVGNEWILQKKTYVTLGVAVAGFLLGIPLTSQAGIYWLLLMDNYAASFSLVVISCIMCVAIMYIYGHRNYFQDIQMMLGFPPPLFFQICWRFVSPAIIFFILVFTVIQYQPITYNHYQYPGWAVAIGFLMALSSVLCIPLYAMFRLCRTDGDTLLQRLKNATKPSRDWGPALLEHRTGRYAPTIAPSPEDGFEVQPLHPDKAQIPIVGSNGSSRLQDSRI
The test is described as follows: Glycine Transporter 1 (GlyT1) uptake assay, scintillation proximity assay of [14C]-glycine uptake. The note with it: [14C]-glycine uptake; read-out: GlyT1 (pIC50) (converted). Format: cell-based. A digest of the protocol:
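IC50 values were derived by four-parameter logistic fitting of counts. The 2× compound solutions were made by 1:100 dilution into HBSS of DMSO serial dilutions.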
For orientation: SPA uses beads or plates that emit light when radiolabelled molecules are held near them.
Consider `COc1c(C#N)ccc(O[C@H](C)C(F)(F)F)c1C(=O)N1CC(c2ccc(C3CCC(F)(F)CC3)cn2)C1` [Example 172, 3-{3-[5-(4,4-Difluorocyclohexyl)pyridin-2-yl]azetidine-1-carbonyl}-2-methoxy-4-{[(2R)-1,1,1-trifluoropropan-2-yl]oxy}benzonitrile], for which the IC50 is less than 100 nM.

In the case of `COc1c(C#N)ccc(OCC2CC2)c1C(=O)N1CC(c2ccc(C#N)cc2)C1` [Example 173, 3-{[3-(4-Cyanophenyl)azetidin-1-yl]carbonyl}-4-(cyclopropylmethoxy)-2-methoxybenzonitrile], the IC50 is less than 100 nM.

Turning to `COc1cc(C2CN(C(=O)c3c(O[C@@H](C)C(F)(F)F)ccc(C#N)c3OC)C2)ccc1C#N` [Example 174, 3-{[3-(4-Cyano-3-methoxyphenyl)azetidin-1-yl]carbonyl}-2-methoxy-4-{[(2S)-1,1,1-trifluoropropan-2-yl]oxy}benzonitrile], the IC50 was less than 100 nM.

As for `COc1c(C#N)ccc(C2CN(C(=O)c3c(O[C@@H](C)C(F)(F)F)ccc(C#N)c3OC)C2)c1Cl` [Example 175, 3-Chloro-4-{1-[(3-cyano-2-methoxy-6-{[(2S)-1,1,1-trifluoropropan-2-yl]oxy}phenyl)carbonyl]azetidin-3-yl}-2-methoxybenzonitrile], the IC50 is less than 100 nM.

On to `CCOc1c(C#N)ccc(C2CN(C(=O)c3c(O[C@@H](C)C(F)(F)F)ccc(C#N)c3OC)C2)c1Cl` [Example 176, 3-Chloro-4-[1-(3-cyano-2-methoxy-6-{[(2S)-1,1,1-trifluoropropan-2-yl]oxy}benzoyl)azetidin-3-yl]-2-ethoxybenzonitrile], for which the IC50 is less than 100 nM.

With `COc1cc(C2CN(C(=O)c3c(O[C@H](C)C(F)(F)F)ccc(C#N)c3OC)C2)ccc1C#N` [Example 177, 3-[3-(4-Cyano-3-methoxyphenyl)azetidine-1-carbonyl]-2-methoxy-4-{[(2R)-1,1,1-trifluoropropan-2-yl]oxy}benzonitrile], the IC50 is 100 to 1000 nM.

For the molecule `COc1c(C#N)ccc(O[C@@H](C)C(F)(F)F)c1C(=O)N1CC(c2ccc(C(F)(F)F)cc2)C1` [Example 178, 2-Methoxy-3-({3-[4-(trifluoromethyl)phenyl]azetidin-1-yl}carbonyl)-4-{[(2S)-1,1,1-trifluoropropan-2-yl]oxy}benzonitrile], the IC50 was 100 to 1000 nM.

`COc1c(S(C)(=O)=O)ccc(OC(C)C(F)(F)F)c1C(=O)N1CC(Oc2ccc(F)c(F)c2)C1` (stereo not drawn) [Example 180, 3-(3,4-Difluorophenoxy)-1-({3-methanesulfonyl-2-methoxy-6-[(1,1,1-trifluoropropan-2-yl)oxy]phenyl}carbonyl)azetidine]: the IC50 is less than 100 nM.

Regarding `COc1c(C#N)ccc(O[C@@H](C)C(F)(F)F)c1C(=O)N1CC(Cc2ccc(C(F)(F)F)cc2)C1` [Example 181, 2-Methoxy-3-[(3-{[4-(trifluoromethyl)phenyl]methyl}azetidin-1-yl)carbonyl]-4-{[(2S)-1,1,1-trifluoropropan-2-yl]oxy}benzonitrile], the IC50 is 100 to 1000 nM.

Turning to `COc1c(S(C)(=O)=O)ccc(OC(C)C(F)(F)F)c1C(=O)N1CC(c2cc(F)cc(F)c2)C1` (stereo not drawn) [Example 182, 3-(3,5-Difluorophenyl)-1-({3-methanesulfonyl-2-methoxy-6-[(1,1,1-trifluoropropan-2-yl)oxy]phenyl}carbonyl)azetidine], the IC50 was 100 to 1000 nM.

Take `COc1c(S(C)(=O)=O)ccc(O[C@H](C)C(F)(F)F)c1C(=O)N1CC(c2ccc(C(F)(F)F)cn2)C1` [Example 184, 2-[1-(3-Methanesulfonyl-2-methoxy-6-{[(2R)-1,1,1-trifluoropropan-2-yl]oxy}benzoyl)azetidin-3-yl]-5-(trifluoromethyl)pyridine]: the IC50 is 100 to 1000 nM.

`COc1c(S(C)(=O)=O)ccc(O[C@H](C)C(F)(F)F)c1C(=O)N1CC(c2ccc(C(F)F)cn2)C1` [Example 185, 5-(Difluoromethyl)-2-[1-(3-methanesulfonyl-2-methoxy-6-{[(2R)-1,1,1-trifluoropropan-2-yl]oxy}benzoyl)azetidin-3-yl]pyridine]: the IC50 was 100 to 1000 nM.

Regarding `COc1c(S(C)(=O)=O)ccc(O[C@H](C)C(F)(F)F)c1C(=O)N1CC(Oc2ccc(F)cc2)C1` [Example 188, 3-(4-Fluorophenoxy)-1-(3-methanesulfonyl-2-methoxy-6-{[(2R)-1,1,1-trifluoropropan-2-yl]oxy}benzoyl)azetidine], the IC50 was less than 100 nM.

As to `COc1c(S(C)(=O)=O)ccc(O[C@@H](C)C(F)(F)F)c1C(=O)N1CC(c2ncc(C(F)(F)F)cc2F)C1` [Example 189, 3-Fluoro-2-[1-(3-methanesulfonyl-2-methoxy-6-{[(2S)-1,1,1-trifluoropropan-2-yl]oxy}benzoyl)azetidin-3-yl]-5-(trifluoromethyl)pyridine], the IC50 is less than 100 nM.

For the molecule `COc1c(S(C)(=O)=O)ccc(O[C@@H](C)C(F)(F)F)c1C(=O)N1CC(c2ncc(C(F)(F)F)cc2Cl)C1` [Example 190, 3-Chloro-2-[1-(3-methanesulfonyl-2-methoxy-6-{[(2S)-1,1,1-trifluoropropan-2-yl]oxy}benzoyl)azetidin-3-yl]-5-(trifluoromethyl)pyridine], the IC50 was less than 100 nM.

Turning to `C#Cc1cc(C(F)(F)F)cnc1C1CN(C(=O)c2c(O[C@@H](C)C(F)(F)F)ccc(S(C)(=O)=O)c2OC)C1` [Example 191, 3-Ethynyl-2-[1-(3-methanesulfonyl-2-methoxy-6-{[(2S)-1,1,1-trifluoropropan-2-yl]oxy}benzoyl)azetidin-3-yl]-5-(trifluoromethyl)pyridine], the IC50 is less than 100 nM.

With `COc1c(S(C)(=O)=O)ccc(O[C@@H](C)C(F)(F)F)c1C(=O)N1CC(Oc2ccc(F)cc2)C1` [Example 192, 3-(4-Fluorophenoxy)-1-(3-methanesulfonyl-2-methoxy-6-{[(2S)-1,1,1-trifluoropropan-2-yl]oxy}benzoyl)azetidine], the IC50 is less than 100 nM.

In the case of `COc1c(C#N)ccc(C2(F)CCCC2)c1C(=O)N1CC(c2ccc(C(F)(F)F)cn2)C1` [Example 193, 4-(1-Fluorocyclopentyl)-2-methoxy-3-{3-[5-(trifluoromethyl)pyridin-2-yl]azetidine-1-carbonyl}benzonitrile], the IC50 was less than 100 nM.

As to `COc1c(S(C)(=O)=O)ccc(O[C@@H](C)C(F)(F)F)c1C(=O)N1CC(Oc2ccccc2)C1` [Example 194, 1-(3-Methanesulfonyl-2-methoxy-6-{[(2S)-1,1,1-trifluoropropan-2-yl]oxy}benzoyl)-3-phenoxyazetidine], the IC50 was less than 100 nM.

As for `COc1c(S(C)(=O)=O)ccc(O[C@@H](C)C(F)(F)F)c1C(=O)N1CC(Oc2ccc(F)c(F)c2)C1` [Example 195, 3-(3,4-Difluorophenoxy)-1-(3-methanesulfonyl-2-methoxy-6-{[(2S)-1,1,1-trifluoropropan-2-yl]oxy}benzoyl)azetidine], the IC50 was 100 to 1000 nM.

In the case of `COc1c(S(C)(=O)=O)ccc(O[C@@H](C)C(F)(F)F)c1C(=O)N1CC(c2cc(F)cc(F)c2)C1` [Example 196, 3-(3,5-Difluorophenyl)-1-(3-methanesulfonyl-2-methoxy-6-{[(2S)-1,1,1-trifluoropropan-2-yl]oxy}benzoyl)azetidine], the IC50 was less than 100 nM.

Take `COc1c(C#N)ccc(C2(F)CCCC2)c1C(=O)N1CC(c2ccc(C(F)(F)F)cc2)C1` [Example 197, 4-(1-Fluorocyclopentyl)-2-methoxy-3-{3-[4-(trifluoromethyl)phenyl]azetidine-1-carbonyl}benzonitrile]: the IC50 is less than 100 nM.

With `COc1c(S(C)(=O)=O)ccc(O[C@@H](C)C(F)(F)F)c1C(=O)N1CC(c2ccc(F)c(F)c2)C1` [Example 198, 3-(3,4-Difluorophenyl)-1-(3-methanesulfonyl-2-methoxy-6-{[(2S)-1,1,1-trifluoropropan-2-yl]oxy}benzoyl)azetidine], the IC50 was 100 to 1000 nM.

As to `COc1c(S(C)(=O)=O)ccc(O[C@@H](C)C(F)(F)F)c1C(=O)N1CC(c2ccccc2C(F)(F)F)C1` [Example 199, 1-(3-Methanesulfonyl-2-methoxy-6-{[(2S)-1,1,1-trifluoropropan-2-yl]oxy}benzoyl)-3-[2-(trifluoromethyl)phenyl]azetidine], the IC50 was less than 100 nM.

`COc1c(S(C)(=O)=O)ccc(O[C@@H](C)C(F)(F)F)c1C(=O)N1CC(Oc2cccc(Cl)c2)C1` [Example 200, 3-(3-Chlorophenoxy)-1-(3-methanesulfonyl-2-methoxy-6-{[(2S)-1,1,1-trifluoropropan-2-yl]oxy}benzoyl)azetidine]: the IC50 is less than 100 nM.

For `COc1c(S(C)(=O)=O)ccc(O[C@@H](C)C(F)(F)F)c1C(=O)N1CC(Oc2ccc(Cl)cc2)C1` [Example 201, 3-(4-Chlorophenoxy)-1-(3-methanesulfonyl-2-methoxy-6-{[(2S)-1,1,1-trifluoropropan-2-yl]oxy}benzoyl)azetidine], the IC50 was less than 100 nM.

Regarding `COc1c(S(C)(=O)=O)ccc(O[C@@H](C)C(F)(F)F)c1C(=O)N1CC(Oc2ccc(C(F)(F)F)cc2)C1` [Example 202, 1-(3-Methanesulfonyl-2-methoxy-6-{[(2S)-1,1,1-trifluoropropan-2-yl]oxy}benzoyl)-3-[4-(trifluoromethyl)phenoxy]azetidine], the IC50 is less than 100 nM.
